Patent US9604975B2, “Indolyl-pyridone derivatives having checkpoint kinase 1 inhibitory activity” (Vernalis (R&D) Ltd., priority 2009, dated 2017)
pIC50: −log10 of the molar value.

target: T1, CHK1 (Homo sapiens, UniProt O14757); assay: CHK1 Enzyme Assay (phosphorylation of Chktide peptide, 33P-ATP filter assay); format: biochemical; details: 12.5 nM His-CHK1, 0.01 mM ATP, 40 minutes at 30° C.; read-out: CHK1 Enzyme Activity (IC50 range)
T1 construct: His; purchased Invitrogen
T1 sequence (O14757 1-476): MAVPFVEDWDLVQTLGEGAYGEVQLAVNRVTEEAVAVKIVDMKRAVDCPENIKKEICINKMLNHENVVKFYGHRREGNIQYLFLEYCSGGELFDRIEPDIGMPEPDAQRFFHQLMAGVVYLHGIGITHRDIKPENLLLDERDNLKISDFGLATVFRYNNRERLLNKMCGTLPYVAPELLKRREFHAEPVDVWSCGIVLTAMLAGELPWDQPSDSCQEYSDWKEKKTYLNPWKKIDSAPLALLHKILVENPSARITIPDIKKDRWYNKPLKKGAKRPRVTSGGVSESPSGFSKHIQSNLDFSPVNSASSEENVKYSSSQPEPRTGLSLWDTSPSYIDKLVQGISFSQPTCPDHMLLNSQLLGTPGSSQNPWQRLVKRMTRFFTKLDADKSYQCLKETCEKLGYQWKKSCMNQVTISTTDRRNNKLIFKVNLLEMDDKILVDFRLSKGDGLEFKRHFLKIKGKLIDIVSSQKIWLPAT
Experimental: Assays for the CHK1 kinase activity were carried out by monitoring the phosphorylation of a synthetic peptide Chktide with the amino acid sequence, […]. The assay mixture containing the inhibitor and CHK1 enzyme was mixed together in a microtiter plate in a final volume of 50 μl and incubated for 40 minutes at 30° C.
The assay mixture contained 0.01 mM unlabeled ATP, 0.5 μCi ^33P-γ-ATP, 14.8 μM Chktide, 0.1 mg/mL BSA, 50 mM Hepes-NaOH pH 7.5 and 12.5 nM His-CHK1 (Invitrogen) enzyme. The reaction was stopped by adding 50 μL of 50 mM phosphoric acid. 90 μL of the mixture was transferred to a pre-wetted 96-well multi-screen MAPHNOB filtration plate (Millipore) and filtered on a vacuum manifold. The filter plate was washed with 3 successive additions of 200 μl 50 mM phosphoric acid and then with 100 μL methanol. The filtration plate was dried for 10 min at 65° C., scintillant added and phosphorylated peptide quantified in a scintillation counter (Trilux, PerkinElmer).

`C[C@@H]1CN(Cc2ccc3[nH]c(-c4cc(NC(=O)c5cnn(Cc6ccc(F)cc6)c5)c[nH]c4=O)cc3c2)C[C@H](C)O1` [Example 76, 1-(4-Fluoro-benzyl)-1H-pyrazole-4-carboxylic acid {5-[5-(cis-2,6-dimethyl-morpholin-4-ylmethyl)-1H-indol-2-yl]-6-oxo-1,6-dihydro-pyridin-3-yl}-amide] and `O=C(Nc1c[nH]c(=O)c(-c2cc3cc(CN4CCC(F)CC4)ccc3[nH]2)c1)c1cnn(Cc2ccc(F)cc2)c1` [Example 81, 1-(4-Fluoro-benzyl)-1H-pyrazole-4-carboxylic acid {5-[5-(4-fluoro-piperidin-1-ylmethyl)-1H-indol-2-yl]-6-oxo-1,6-dihydro-pyridin-3-yl}-amide] cannot be ordered by pIC50: over 7.00 for the first, over 7.00 for the second.

`CN1CCN(Cc2ccc3[nH]c(-c4cc(C(=O)Nc5cnn(Cc6ccc(F)c(F)c6)c5)c[nH]c4=O)cc3c2)CC1` [Example 104, 5-[5-(4-Methyl-piperazin-1-ylmethyl)-1H-indol-2-yl]-6-oxo-1,6-dihydro-pyridine-3-carboxylic acid [1-(3,4-difluoro-benzyl)-1H-pyrazol-4-yl]-amide] and `O=C(Nc1cnn(Cc2ccc(F)c(F)c2)c1)c1c[nH]c(=O)c(-c2cc3cc(CNCCO)ccc3[nH]2)c1` [Example 103, 5-{5-[(2-Hydroxyethylamino)-methyl]-1H-indol-2yl}-6-oxo-1,6-dihydropyridine-3-carboxylic acid[1-(3,4-difluorobenzyl)-1H-pyrazol-4-yl]-amide] cannot be ordered by pIC50: over 7.00 for the first, over 7.00 for the second.

`CCc1cccc(Cn2cc(C(=O)Nc3c[nH]c(=O)c(-c4cc5cc(OCCN(C)C)ccc5[nH]4)c3)cn2)c1` [Example 128, 1-(3-Ethyl-benzyl)-1H-pyrazole-4-carboxylic acid {5-[5-(2-dimethylamino-ethoxy)-1H-indol-2-yl]-6-oxo-1,6-dihydro-pyridin-3-yl}-amide] and `Cc1ccc(Cn2cc(C(=O)Nc3c[nH]c(=O)c(-c4cc5cc(OCCCN(C)C)ccc5[nH]4)c3)cn2)cc1` [Example 122, 1-(4-Methyl-benzyl)-1H-pyrazole-4-carboxylic acid {5-[5-(3-dimethylamino-propoxy)-1H-indol-2-yl]-6-oxo-1,6-dihydro-pyridin-3-yl}-amide] cannot be ordered by pIC50: over 7.00 for the first, over 7.00 for the second.

`CN1CCN(c2ccc3[nH]c(-c4cc(NC(=O)c5cnn(Cc6ccccc6)c5)c[nH]c4=O)cc3c2)CC1` [Example 113, 1-Benzyl-1H-pyrazole-4-carboxylic acid {5-[5-(4-methyl-piperazin-1-yl)-1H-indol-2-yl]-6-oxo-1,6-dihydro-pyridin-3-yl}-amide] and `CN1CCN(Cc2cccc3[nH]c(-c4cc(NC(=O)c5cnn(Cc6ccccc6)c5)c[nH]c4=O)cc23)CC1` [Example 107, 1-Benzyl-1H-pyrazole-4-carboxylic acid {5-[4-(4-methyl-piperazin-1-ylmethyl)-1H-indol-2-yl]-6-oxo-1,6-dihydro-pyridin-3-yl}-amide] cannot be ordered by pIC50: over 7.00 for the first, over 7.00 for the second.

`CC(C)(COc1ccc2[nH]c(-c3cc(NC(=O)c4cnn(Cc5ccccc5)c4)c[nH]c3=O)cc2c1)CN1CCC(F)(F)C1` [Example 181, 1-Benzyl-1H-pyrazole-4-carboxylic acid (5-{5-[3-(3,3-difluoro-pyrrolidin-1-yl)-2,2-dimethyl-propoxy]-1H-indol-2-yl}-6-oxo-1,6-dihydro-pyridin-3-yl)-amide] and `O=C(Nc1c[nH]c(=O)c(-c2cc3cc(CN4CC[C@@H](F)C4)ccc3[nH]2)c1)c1cnn(Cc2ccccc2)c1` [Example 174, 1-Benzyl-1H-pyrazole-4-carboxylic acid {5-[5-((R)-3-fluoro-pyrrolidin-1-ylmethyl)-1H-indol-2-yl]-6-oxo-1,6-dihydro-pyridin-3-yl}-amide] cannot be ordered by pIC50: over 7.00 for the first, over 7.00 for the second.

`CN(C)CCOc1cccc2[nH]c(-c3cc(NC(=O)c4cnn(Cc5ccccc5)c4)c[nH]c3=O)cc12` [Example 159, 1-Benzyl-1H-pyrazole-4-carboxylic acid {5-[4-(2-dimethylamino-ethoxy)-1H-indol-2-yl]-6-oxo-1,6-dihydro-pyridin-3-yl}-amide] and `O=C(Nc1c[nH]c(=O)c(-c2cc3ccccc3[nH]2)c1)c1cnn(CCCc2ccccc2)c1` [Example 94, 1-(3-Phenyl-propyl)-1H-pyrazole-4-carboxylic acid [5-(1H-indol-2-yl)-6-oxo-1,6-dihydro-pyridin-3-yl]-amide] cannot be ordered by pIC50: over 7.00 for the first, over 7.00 for the second.

First: O=C(Nc1cnn(Cc2ccc(F)c(F)c2)c1)c1c[nH]c(=O)c(-c2cc3ccccc3[nH]2)c1 [Example 11, 5-(1H-Indol-2-yl)-6-oxo-1,6-dihydro-pyridine-3-carboxylic acid [1-(3,4-difluoro-benzyl)-1H-pyrazol-4-yl]-amide]
Second: Cc1[nH]c(=O)c(-c2cc3ccccc3[nH]2)cc1NC(=O)c1cnn(Cc2ccc(F)c(F)c2)c1 [Example 33, 1-(3,4-Difluoro-benzyl)-1H-pyrazole-4-carboxylic acid [5-(1H-indol-2-yl)-2-methyl-6-oxo-1,6-dihydro-pyridin-3-yl]-amide]
The pIC50 of the first is higher: over 7.00 for the first, 6.30 to 7.00 for the second.

`CC(C)c1ccc(Cn2cc(C(=O)Nc3c[nH]c(=O)c(-c4cc5cc(CN6CCC(F)CC6)ccc5[nH]4)c3)cn2)cc1` [Example 73, 1-(4-isopropylbenzyl)-1H-pyrazole-4-carboxylic acid {5-[5-(4-fluoropiperidin-1-ylmethyl)-1H-indol-2-yl)-6-oxo-1,6-dihydropyridin-3-yl}-amide] and `CC(C)c1ccc(Cn2cc(C(=O)Nc3c[nH]c(=O)c(-c4cc5cc(OCCCN6CCCCC6)ccc5[nH]4)c3)cn2)cc1` [Example 150, 1-(4-Isopropylbenzyl)-1H-pyrazole-4-carboxylic acid-{6-oxo-5-[5-(3-piperidin-1-ylpropoxy)-1H-indol-2-yl]-1,6-dihydropyridin-3-yl}-amide] cannot be ordered by pIC50: over 7.00 for the first, over 7.00 for the second.

`C[C@H](c1ccccc1)n1cc(C(=O)Nc2c[nH]c(=O)c(-c3cc4cc(CN5CCCCC5)ccc4[nH]3)c2)cn1` [Example 168, 1-((R)-1-Phenyl-ethyl)-1H-pyrazole-4carboxylic acid [6-oxo-5-(5-piperidin-1-ylmethyl-1H-indol-2-yl)-1,6-dihydro-pyridin-3-yl]-amide] and `CC(c1ccccc1)n1cc(C(=O)Nc2c[nH]c(=O)c(-c3cc4cc(CN5CCOCC5)ccc4[nH]3)c2)cn1` (stereo not drawn) [Example 86, 1-(1-Phenyl-ethyl)-1H-pyrazole-4-carboxylic acid [5-(5-morpholin-4-ylmethyl-1H-indol-2-yl)-6-oxo-1,6-dihydro-pyridin-3-yl]-amide] cannot be ordered by pIC50: over 7.00 for the first, over 7.00 for the second.

First: Cc1[nH]c(=O)c(-c2cc3ccccc3[nH]2)cc1NC(=O)c1cnn(Cc2cccc(F)c2)c1 [Example 30, 1-(3-Fluoro-benzyl)-1H-pyrazole-4-carboxylic acid [5-(1H-indol-2-yl)-2-methyl-6-oxo-1,6-dihydro-pyridin-3-yl]-amide]
Second: O=C(Nc1c[nH]c(=O)c(-c2cc3cc(CN4CCCC(F)C4)ccc3[nH]2)c1)c1cnn(Cc2ccccc2)c1 (stereo not drawn) [Example 57, 1-Benzyl-1H-pyrazole-4-carboxylic acid {5-[5-(3-fluoro-piperidin-1-ylmethyl)-1H-indol-2-yl]-6-oxo-1,6-dihydro-pyridin-3-yl}-amide]
The pIC50 of the first is lower: 6.30 to 7.00 for the first, over 7.00 for the second.

`CC(C)(C)c1ccc(Cn2cc(C(=O)Nc3c[nH]c(=O)c(-c4cc5cc(OCCCN6CCCCC6)ccc5[nH]4)c3)cn2)cc1` [Example 153, 1-(4-tert-Butylbenzyl)-1H-pyrazole-4-carboxylic acid-{6-oxo-5-[5-(3-piperidin-1-ylpropoxy)-1H-indol-2-yl]-1,6-dihydropyridin-3-yl}-amide] and `Cc1ccc(Cn2cc(C(=O)Nc3c[nH]c(=O)c(-c4cc5cc(OCCN6CCCCC6)ccc5[nH]4)c3)cn2)cc1` [Example 115, 1-(4-Methyl-benzyl)-1H-pyrazole-4-carboxylic acid {6-oxo-5-[5-(2-piperidin-1-yl-ethoxy)-1H-indol-2-yl]-1,6-dihydro-pyridin-3-yl}-amide] cannot be ordered by pIC50: over 7.00 for the first, over 7.00 for the second.

`CCN(CCO)Cc1ccc2[nH]c(-c3cc(C(=O)Nc4cnn(Cc5ccc(F)c(F)c5)c4)c[nH]c3=O)cc2c1` [Example 102, 5-(5-{[Ethyl-(2-hydroxyethyl)amino]-methyl}-1H-indol-2yl)-6-oxo-1,6-dihydropyridine-3-carboxylic acid[1-(3,4-difluorobenzyl)-1H-pyrazol-4-yl]-amide] and `Cc1ccc(Cn2cc(C(=O)Nc3c[nH]c(=O)c(-c4cc5cc(OCCCN6CCOCC6)ccc5[nH]4)c3)cn2)cc1` [Example 117, 1-(4-Methyl-benzyl)-1H-pyrazole-4-carboxylic acid {5-[5-(3-morpholin-4-yl-propoxy)-1H-indol-2-yl]-6-oxo-1,6-dihydro-pyridin-3-yl}-amide] cannot be ordered by pIC50: over 7.00 for the first, over 7.00 for the second.
